Source: patent US8772250B2, “Compositions and methods for treating ischemia and ischemia-reperfusion injury” (Ischemix, LLC, priority 2010, dated 2014)
Marks after values point to notes of the source that are not given here.

What was measured:
[1] = system: myocardial ischemia-reperfusion injury; test: Rat model of myocardial I/R injury (MI/AR ratio); assay type: in vivo; details: for % Reduction in MI/AR Compared to Vehicle: rat IV
[2] = system: RIP-deficient Jurkat cells; test: Cell survival assay, TNFα-induced apoptosis; assay type: cell-based, human; details: for % Survival: 10 ng/mL TNFα, 24 h
Experimental: The ability of RLip-EA-OH to prevent apoptosis and promote cell survival was assessed using Jurkat cells deficient in Receptor-Interacting Protein (RIP), a cell death mediating protein. The Jurkat cell line is derived from human T-Lymphocytes. RIP-deficient Jurkat cells are susceptible to apoptosis when treated with tumor necrosis factor alpha (TNFα). These cells were treated with either vehicle or RLip-EA-OH and then apoptosis was triggered with TNFα. Cell survival was assessed to evaluate if RLip-EA-OH protected the cells against TNFα induced apoptosis.
RIP-deficient Jurkat cells were seeded into 96 well plates at 20,000 cells per well and treated for 2 hours with RLip-EA-OH (6 wells for each concentration) or DMSO. After pretreatment, 3 wells for each dose of drug were exposed to 10 ng/mL human recombinant TNFα (TNFα was not added to the other 3 wells). Twenty four hours after TNFα treatment, ATP cell viability was determined (CellTiter-Glo, Promega) and the values were used to calculate % survival of the cells.

[3] = molecular target: Src (Homo sapiens, UniProt P12931); test: Src tyrosine kinase activation assay (mobility shift); assay type: biochemical
Sequence of Src (P12931 whole entry, species assumed): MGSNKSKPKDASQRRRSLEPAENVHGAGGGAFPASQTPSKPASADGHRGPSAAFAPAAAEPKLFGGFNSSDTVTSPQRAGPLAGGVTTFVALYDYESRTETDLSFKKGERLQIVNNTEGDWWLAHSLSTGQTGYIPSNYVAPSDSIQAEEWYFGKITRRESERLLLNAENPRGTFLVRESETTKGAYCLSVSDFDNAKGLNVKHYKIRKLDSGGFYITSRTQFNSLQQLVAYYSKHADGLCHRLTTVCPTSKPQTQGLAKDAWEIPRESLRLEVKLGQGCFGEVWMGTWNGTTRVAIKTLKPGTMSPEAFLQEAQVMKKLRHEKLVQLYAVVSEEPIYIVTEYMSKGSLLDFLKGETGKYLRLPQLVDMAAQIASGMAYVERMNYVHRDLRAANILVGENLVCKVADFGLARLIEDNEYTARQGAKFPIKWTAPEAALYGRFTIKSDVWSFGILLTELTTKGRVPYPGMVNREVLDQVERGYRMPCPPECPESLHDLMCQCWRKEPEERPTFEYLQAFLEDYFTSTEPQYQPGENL
Text: IGF1R and Src tyrosine kinases have endogenous levels of activity in the presence of ATP and substrate. This activity was readily measured using a mobility shift assay using a Caliper LabChip® 3000 and a 12-sipper LabChip® to detect both phosphorylated and unphosphorylated substrate (Caliper Life Sciences, Discovery Alliances and Services Division). Enzyme, substrate and ATP concentrations were optimized for each assay. For the IGF1R assay, the final concentrations of the enzyme, peptide and ATP were 20 nM, 1.5 μM, and 1220 μM, respectively. For the Src assay, the final concentrations of the enzyme, peptide and ATP were 2.5 nM, 1.5 μM, and 17 μM, respectively.
RLip-EA-OH was evaluated at multiple concentrations for an effect on activation of IGF1 receptor kinase (IGF1R) and Src. The compounds tested activated IGF1R and Src with different selectivities.

[4] = system: CHO M1-WT3 cells; test: Cytosolic calcium overload assay, carbachol stimulated; assay type: cell-based, Chinese hamster; details: 200 nM carbachol, variant concentrations
Text: Cytosolic calcium increases in the CHO M1-WT3 cells when stimulated with carbachol ([Molecular Devices, FlexStation Application Note 2, Comparison of FLIPR® and FLEXstation™ for Calcium Mobilization Assays]) and may be detected with a fluorescent dye that binds calcium. An increase in fluorescence following carbachol stimulation is interpreted as an increase in cytosolic calcium. Chinese hamster ovary (CHO) cells were allowed to adhere to the bottom of a 96-well culture plate. The fluorescent dye and a test sample were placed on the plate and allowed to be taken up by the cells. The fluorescence level was measured every two seconds using a plate reader (Flexstation II, Molecular Devices, Sunnyvale Calif.). The cells were stimulated with carbachol and fluorescent data reported as the peak increase in fluorescence above baseline following carbachol stimulation. Data were normalized to the peak carbachol response in the control sample.
CHO cells from the cell line CHO-M1-WT3 were grown in Hams F12 medium supplemented with 10% FBS and 5 μg/mL G418 to maintain expression of the M1 muscarinic receptor. Cells were seeded the night before the experiment at a concentration of 30,000 cells/well in a volume of 100 μL per well of black walled, clear bottomed, 96-well microplates (“assay plates”). Cells were incubated at 37° C. and 5% CO2 overnight. […] The cells were placed into the FlexStation system to monitor fluorescence before and after the addition of 50 μL of 1 μM carbachol for a final concentration of 200 nM. Fluorescence was measured for 17 seconds prior to carbachol addition and 43 seconds following carbachol addition. The Fluo-4 dye was excited at a wavelength of 485 nm and emission measured at 525 nm. The Calcium-3 dye was excited at a wavelength of 494 nm and emission measured at 525 nm. The calcium response was reported as the peak fluorescence minus the baseline fluorescence calculated as the average of the fluorescence prior to carbachol addition.

Which “efficacy in a rat model of I/R injury” value ([1]; intravenously (bolus IV and infusion), orally and intra-cardiac) does the source give for `C[C@H](NC(=O)[C@H](CCC(=O)O)NC(=O)CCCC[C@@H]1CCSS1)C(=O)O` [RLip-EA-OH, N-(R)-lipoyl-L-glutamyl-L- alanine] here?
The value was “efficacious”.

And the “% Reduction in MI/AR Compared to Vehicle” value ([1]; Entry 1: 1 mg/kg at −0.25 h)?
Its value is 3%.

What about the “% Reduction in MI/AR Compared to Vehicle” value ([1]; Entry 2a: 3 mg/kg (bolus) at −0.25 h) of the same compound?
Its value is 6%.

And the “% Reduction in MI/AR Compared to Vehicle” value ([1]; Entry 3a: 5 mg/kg (bolus) at −0.25 h)?
The value was 27* %.

And the “% Reduction in MI/AR Compared to Vehicle” value ([1]; Entry 3b: 5 mg/kg (1 h infusion) at −1 h)?
The value was 27* %.

And the “% Reduction in MI/AR Compared to Vehicle” value ([1]; Entry 4a: 10 mg/kg (bolus) at −0.25 h)?
The value was 33* %.

What about the “% Reduction in MI/AR Compared to Vehicle” value ([1]; Entry 4b: 10 mg/kg (1 h infusion)) of the same compound?
The value was 33* %.

What about the “% Reduction in MI/AR Compared to Vehicle” value ([1]; Entry 6: 20 mg/kg at −0.25 h) of the same compound?
The value was 9%.

What about the “% Reduction in MI/AR Compared to Vehicle” value ([1]; Entry 8: 10 mg/kg at −6 h) of the same compound?
The value was 24* %.

And the “% Reduction in MI/AR Compared to Vehicle” value ([1]; Entry 9: 10 mg/kg at −24 h)?
The value was 24* %.

What about the “% Reduction in MI/AR Compared to Vehicle” value ([1]; Entry 10: 20 mg/kg at −3 h) of the same compound?
Its value is 26* %.

And the “% Reduction in MI/AR Compared to Vehicle” value ([1]; Entry 11: 40 mg/kg at −3 h)?
Its value is 17%.

And the “% Reduction in MI/AR Compared to Vehicle” value ([1]; Entry 14: 10 and 10 mg/kg at −24 and −3 h)?
Its value is 32* %.

And the “% Reduction in MI/AR Compared to Vehicle” value ([1]; Entry 15: 10 and 10 and 10 mg/kg at −24 and −3 and −0.25 h)?
The value was 42* %.

And the “% Reduction in MI/AR Compared to Vehicle” value ([1]; Entry 17: 10 and 10 mg/kg at −3 h and at reperfusion)?
Its value is 34* %.

And the “reduction of myocardial tissue death vs saline vehicle” value (from here on “reduction of myocardial tissue death”) ([1]; rat, 1 mg/kg IC, 15 minutes pre-occlusion)?
Its value is 38%.

And the “Reduction of MI:AR Ratio Relative to Vehicle (%)” value ([1]; rat, 1 mg/kg IC, Table 7 meta analysis)?
The value was 31 ± 3 %.

What about the “Reduction of MI:AR Ratio Relative to Vehicle (%)” value ([1]; rat, 1 mg/kg IC, Table 8) of the same compound?
Its value is 31 ± 3 %.

What about the “reduction of myocardial tissue death” value ([1]; rat, 1 mg/kg IC, at reperfusion (within 1 minute after reperfusion)) of the same compound?
The value was 32%.

And the “reduction of myocardial tissue death” value ([1]; rat, 1 mg/kg IC, during occlusion (15 minutes after occluding))?
Its value is 24%.

And the “MI:AR ratio” value ([1]; rat, 1 mg/kg IC, meta analysis n=64)?
The value was 0.250.

What about the “reduction of MI/AR vs saline vehicle” value ([1]; rat, 1 mg/kg IC, meta analysis n=64 vs n=54, p<0.001) of the same compound?
The value was 33%.

What about the MI/AR ([1]; rat, 1 mg/kg single bolus IC 15 minutes prior to ischemia) of the same compound?
Its MI/AR is 0.337.

And the MI/AR ([1]; rat, 2 mg/kg single bolus IC 15 minutes prior to ischemia)?
The MI/AR was 0.290.

And the “MI/AR (meta-analysis)” value ([1]; rat, B—Single (10_0))?
The value was 0.261.

And the “MI/AR (meta-analysis)” value ([1]; rat, C—Multiple (10_10))?
The value was 0.207.

And the “effect of different doses on myocardial tissue death (MI/AR)” value ([1]; rat, IV or IC, 15 minutes pre-occlusion)?
The value was “significantly (p<0.05) reduced myocardial tissue death and was dose dependent”.

What about the “% Reduction in MI/AR compared to vehicle controls” value ([1]; rat, Table 11: 10 mg/kg at −0.25 h) of the same compound?
Its value is 28%.

What about the “% Reduction in MI/AR compared to vehicle controls” value ([1]; rat, Table 11: 10 and 10 mg/kg at −3 and −0.25 h) of the same compound?
Its value is 43* %.

What about the “reduction in MI damage” value ([1]; rat, single 10 mg/kg IV bolus 15 min before ischemia or at 3 h before ischemia) of the same compound?
Its value is ~33%.

What about the “reduction of MI (meta-analysis)” value ([1]; rat, single bolus dose 10 mg/kg at −3 h) of the same compound?
The value was 29%.

What about the “% Survival” value ([2]; 0.006 μM) of the same compound?
Its value is 84%.

And the “% Survival” value ([2]; 0.012 μM)?
The value was 95%.

What about the “% Survival” value ([2]; 0.05 μM) of the same compound?
Its value is 96%.

And the “% Survival” value ([2]; 0.1 μM)?
The value was 98%.

And the “% Survival” value ([2]; 0.2 μM)?
Its value is 101%.

What about the “% Survival” value ([2]; 1.5 μM) of the same compound?
The value was 106%.

And the “effect on TNFα induced cell death” value ([2]; RIP-deficient Jurkat cells)?
The value was “prevented TNFα induced cell death in a dose dependent manner”.

And the “Src % activity above control (±SEM)” value ([3]; 100 μM)?
Its value is 70 ± 1%.

And the “Src % Increase in activity above vehicle control” value ([3]; 300 μM)?
Its value is 78 ± 2%.

What about the “effect on carbachol stimulated flux in cytosolic calcium” value [4] of the same compound?
Its value is “diminished the flux in cytosolic calcium in a dose dependent manner”.
